In patent US11707500B2, “Growth promoting peptides, and uses thereof” (NURITAS LIMITED, priority 2015, dated 2023):

Key:
Type in all cases: cell-based
[1] = tested on: Human Dermal Fibroblasts (HDF); experiment: BrdU cell proliferation assay; conditions: HDF incubated 24 h with 5, 0.5 or 0.05 μg/ml synthetic peptide; percentage of untreated control
Method: BrDu is incorporated into newly synthesised DNA strands of actively proliferating cells. Following partial denaturation of double stranded DNA, Brdu is detected immunochemically allowing the assessment of the population of cells which are synthesizing DNA.
Human Dermal Fibroblasts (HDF—Sigma 10605a) were seeded in a 96 well plate at 10,000 cells per well in DMEM containing 10% fetal calf serum (FCS), 1% Pen/strep, 1% L-glutamine and allowed to adhere for 24 h.
Following the initial 24 h incubation the cells were incubated with 5 μg/ml, 0.5 μg/ml or 0.05 μg/ml synthetic peptide for 24 h respectively.
After 18 h incubation with synthetic peptides 20 μl BrDu reagent was added to each well.
At 24 h incubation the cell were fixed and the amount of […] was measured using the BrdU Cell Proliferation Assay, all steps were carried out according to the manufacturer's instructions.
Results were calculated as a percentage of the untreated control. An increase in optical density reading indicates greatER incorporation of BrDu and increase cell proliferation.

[2] = tested on: keratinocytes of the basal layer of the epidermis, human skin tissue explants; experiment: Ki67 immunohistochemistry (mitotic index) in skin explants; conditions: peptides 20 μM (Peptide 8 10 μM), compositions 500 μg/mL, EGF 10 ng/mL
Method: (§1) Skin explants were prepared from abdominal plastic surgery. Some explants were delipidated with alcohol to obtain a dehydrated skin.
(§2) These explants were maintained in maintenance medium supplied by the provider Bioprédic International for 5 days. Test items are applied twice per day with 5 μL per explant.
(§3) After receipt in the laboratory, each skin explant in the maintenance medium is delipidated with 5 μL alcohol during 3 hours.
(§4) After 3 hours, all skin explants are treated two per day with test items, and they are incubated at 37° C.+/−2° C., 5% CO2 for 1 day or 5 days. Integrity of the system is realized at day 1 and day 5 with a viability control with MTT.
Epithelial proliferation was analyzed by immunohistochemistry using anti-Ki67 antibody.
Counting the number of labeled cells (keratinocytes of the basal layer of the epidermis) is performed and provides the total number of basal cells to calculate the % of labeled cells.
The results of the immunohistochemical analysis of Ki67 are reported in Table 4 and expressed as % of labelled at the basal layer of the epidermis. […] Immunohistochemical analysis of mitotic activity is shown in annex 4 with a reminder of the average for each analysed conditions.

[3] = tested on: elastic fibers of the dermis, human skin tissue explants; experiment: Morphometric quantification of elastic fibers (elastin expression) in skin explants; conditions: for Morphometric quantification of elastic fibers in the middle dermis (%) / Morphometric quantification of elastic fibers in the superficial dermis (%): test items applied twice per day, 5 μL per explant, peptides 20 μM (Peptide 8 10 μM), compositions 500 μg/mL, EGF 10 ng/mL
Method: as §1, §2
For each time of analysis (D1 and D5), histologies on delipidated explants, treated explants with test items, the DMSO 0.3% control and water control, are performed.
as §3, §4
Histology is realized by the laboratory Gredeco and the immunostaining to elastin and Ki67 are realized by the same laboratory. Immunostaining to filaggrin is realized by the laboratory Intertek.
The immunohistochemical staining intensity in the elastic fibers is evaluated using a semi-quantitative histological score.
The percentage area taken up by elastic fibers in the dermis was calculated in the dermis and the average superficial dermis.

Row | Substance | INCREASE IN PROLIFERATION [1] | further results
1 | 121 (LVIPVNGPGK) [compound 121] | 48% | 
2 | 124 (VIPVNGPGK) [compound 124] | 15% | 
3 | 146 (RHGEWRPSY) [compound 146] | 80% | 
4 | 158 (NYDEGSEPRVPAQRE) [compound 158] | 21% | 
5 | 181 (TIKLPAGTTSYLVNQDDEEDLRLVD) [compound 181] | 33% | 
6 | 222 (IDGYDTPVEGR) [compound 222] | 110% | 
7 | 226 (IYGPDTGVDYKDNQMR) [compound 226] | 30% | 
8 | 247 (EGYYGEQQQQPGMTR) [compound 247] | 28% | 
9 | 248 (GYYGEQQQQPGMTR) [compound 248] | 86% | 
10 | 249 (EEGYYGEQQQQPGMTR) [compound 249] | 30% | 
11 | 252 (SSEEGYYGEQQQQPGMTR) [compound 252] | 111% | 
12 | 253 (SEEGYYGEQQQQPGMTR) [compound 253] | 112% | 
13 | 256 (YGEQQQQPGMTR) [compound 256] | 117% | 
14 | 257 (YYGEQQQQPGMTR) [compound 257] | 118% | 
15 | 270 (TVFNGVLRPGQLL) [compound 270] | 47% | 
16 | 272 (NGVLRPGQL) [compound 272] | 97% | 
17 | 285 (DALEPDNR) [compound 285] | 81% | 
18 | 330 (VIPAGHPVAVR) [compound 330] | 18% | 
19 | 337 (IEKILLEE) [compound 337] | 8% | 
20 | 341 (EVEERSQNIF) [compound 341] | 83% | 
21 | 359 (GAFTPLQYKSYQD) [compound 359] | 15% | 

Row | Substance | INCREASE IN PROLIFERATION [1] | further results
22 | 365 (GAFTPLQYK) [compound 365] | 58% | 
23 | 403 (LGAPDVGHPM) [compound 403] | 51% | 
24 | 410 (YRELGAPDVGHPMSE) [compound 410] | 73% | 
25 | 452 (HPRPPKPDAPR) [compound 452] | 76% | 
26 | 453 (LQQAPPPPQR) [compound 453] | 25% | 
27 | 454 (VGWGEQPWSPY) [compound 454] | 38% | 
28 | 455 (FHMPP) [compound 455] | 47% | 
29 | 457 (FWMA) [compound 457] | 114% | 
30 | 460 (HMPSS) [compound 460] | 38% | 
31 | 461 (HRFR) [compound 461] | 85% | 
32 | 462 (HRRS) [compound 462] | 15% | 
33 | 463 (HSPR) [compound 463] | 100% | 
34 | 464 (HWFA) [compound 464] | 18% | 
35 | 465 (MFRR) [compound 465] | 96% | 
36 | 467 (MPPS) [compound 467] | 90% | 
37 | 468 (MPRR) [compound 468] | 82% | 
38 | 470 (PHMP) [compound 470] | 119% | 
39 | 471 (PHMPS) [compound 471] | 38% | 
40 | 472 (PRRF) [compound 472] | 77% | 
41 | 473 (WMKA) [compound 473] | 41% | 
42 | 474 (DSINALEPDHR) [compound 474] | 121% | 

Row | Substance | INCREASE IN PROLIFERATION [1] | further results
43 | 477 (IFEDAITIPGR) [compound 477] | 81% | 
44 | 478 (LDALEPDNRIESE) [compound 478] | 76% | 
45 | 479 (KTLDYWPSLR) [compound 479] | 106% | 
46 | 480 (RHGEWGPSY) [compound 480] | 102% | 
47 | 482 (ILVDGSHDIER) [compound 482] | 113% | 
48 | 495 (HPMS) [compound 495] | 68% | 
49 | 497 (MPMP) [compound 497] | 58% | 
50 | 499 (PNSM) [compound 499] | 113% | 
51 | 500 (WDPA) [compound 500] | 6% | 
52 | 501 (LRGFSK) [compound 501] | 43% | 
53 | 502 (RSQNIF) [compound 502] | 68% | 
54 | 503 (YLRGFS) [compound 503] | 125% | 
55 | 504 (GALMLPHYN) [compound 504] | 119% | 
56 | 505 (GALMLPHYNSR) [compound 505] | 118% | 
57 | HGPVEMPYTLLYPSSK [0723.01] |  | % of Ki67 positive cells in the basal layer of the epidermis ([2]; D 1): 18.57%; % of Ki67 positive cells in the basal layer of the epidermis ([2]; D 5): 3.92%; Morphometric quantification of elastic fibers in the middle dermis (%) ([3]; D 1): 7.59%; Morphometric quantification of elastic fibers in the superficial dermis (%) ([3]; D 1): 4.45%; elastic fibers in the middle dermis compared to the water control at D5 [3]: an increase; Morphometric quantification of elastic fibers in the middle dermis (%) ([3]; D 5): 10.17%; Morphometric quantification of elastic fibers in the superficial dermis (%) ([3]; D 5): 10.21%; elastic fibers in the superficial dermis compared to control water [3]: increase by twice
58 | LDALEPDNR [0723.03] |  | % of Ki67 positive cells in the basal layer of the epidermis ([2]; D 1): 22.01%; % of Ki67 positive cells in the basal layer of the epidermis ([2]; D 5): 10.04%; Morphometric quantification of elastic fibers in the middle dermis (%) ([3]; D 1): 4.9%; Morphometric quantification of elastic fibers in the superficial dermis (%) ([3]; D 1): 3%; elastic fibers in the middle dermis compared to the water control at D5 [3]: an increase; Morphometric quantification of elastic fibers in the middle dermis (%) ([3]; D 5): 9%; Morphometric quantification of elastic fibers in the superficial dermis (%) ([3]; D 5): 11.68%; elastic fibers in the superficial dermis compared to control water [3]: increase by twice
59 | QQYGIAASPFLQSAA [0723.07] |  | % of Ki67 positive cells in the basal layer of the epidermis ([2]; D 1): 22.22%; % of Ki67 positive cells in the basal layer of the epidermis ([2]; D 5): 5.26%; Morphometric quantification of elastic fibers in the middle dermis (%) ([3]; D 1): 6.46%; Morphometric quantification of elastic fibers in the superficial dermis (%) ([3]; D 1): 4%; Morphometric quantification of elastic fibers in the middle dermis (%) ([3]; D 5): 5.33%; Morphometric quantification of elastic fibers in the superficial dermis (%) ([3]; D 5): 5.15%
60 | RLQSQNDQRGEIIHVK [0723.02] |  | % of Ki67 positive cells in the basal layer of the epidermis ([2]; D 1): 19.61%; % of Ki67 positive cells in the basal layer of the epidermis ([2]; D 5): 6.73%; Morphometric quantification of elastic fibers in the superficial dermis (%) ([3]; D 1): 6.09%; elastic fibers in the middle dermis compared to the water control at D5 [3]: an increase; Morphometric quantification of elastic fibers in the middle dermis (%) ([3]; D 5): 9.08%; Morphometric quantification of elastic fibers in the superficial dermis (%) ([3]; D 5): 7.59%; elastic fibers in the middle dermis at day 1 compared to control water ([3]; day 1, compared to control water): increase doubled
61 | RPYYSNAPQEIF [0723.04] |  | % of Ki67 positive cells in the basal layer of the epidermis ([2]; D 1): 14.97%; % of Ki67 positive cells in the basal layer of the epidermis ([2]; D 5): 11.36%; Morphometric quantification of elastic fibers in the middle dermis (%) ([3]; D 1): 5.22%; Morphometric quantification of elastic fibers in the superficial dermis (%) ([3]; D 1): 3.28%; Morphometric quantification of elastic fibers in the middle dermis (%) ([3]; D 5): 9%; Morphometric quantification of elastic fibers in the superficial dermis (%) ([3]; D 5): 8.94%
